Experimental data published in patent publication US20240246940A1, “HETEROARYL DERIVATIVE COMPOUND AND USE THEREOF” (VORONOI INC., priority 2021, published 2024).

How the values were obtained:
Assay type in all cases: cell-based
[1] = tested on: N-87 cells (HER2 overexpressing cell line); assay: N-87 cell proliferation inhibitory activity (CellTiter-Glo, 72 hours)
Protocol: To evaluate the cell proliferation inhibitory activity of the compound according to the present invention on HER2 and EGFR kinases, the following method was performed using HER2 overexpressing cell lines (SK-BR-3, BT-474, and N-87) and EGFR expressing cell line (HaCaT).
McCOY'S 5A supplemented with 10% FBS was used for SK-BR-3 cells, RPMI-1640 medium supplemented with 20% FBS was used for BT-474 cancer cells, and RPMI-1640 medium supplemented with 10% FBS was used for N-87 cancer cells. DMEM supplemented with 10% FBS was used for HaCaT cells.
For SK-BR-3 cells, 5000 cells were aliquoted into each well of a white clear bottom 96 well plate (Corning) 48 hours before treatment with the compounds of Examples. For BT-474 cells, 5000 cells were aliquoted into each well of a white clear bottom 96 well plate (Corning) 48 hours before treatment with the compounds of Examples. For N-87 cells, 5000 cells were aliquoted into each well of a white clear bottom 96 well plate (Corning) 24 hours before treatment with the compounds of Examples. For HaCaT cells, 3000 cells were aliquoted into each well of a white clear bottom 96 well plate (Corning) 24 hours before treatment with the compounds of Examples. For SK-BR-3 cells and BT-474 cells, the compounds of Examples were diluted in dimethyl sulfoxide (three-fold dilution, a total of 11 concentrations) and injected each in an amount of 1 μl to a final concentration of 0.2 nM to 10 μM. For N-87 cells, the compounds of Examples were diluted in dimethyl sulfoxide (five-fold dilution, a total of 11 concentrations) and injected each in an amount of 0.5 μl to a final concentration of […] to 5 μM. For HaCaT cells, the compounds of Examples were diluted in dimethyl sulfoxide (three-fold dilution, a total of 11 concentrations) and injected each in an amount of 0.5 μl to a final concentration of 0.8 nM to 45 μM. For the measurement of living cells, the cells were stored at room temperature for 10 minutes using CellTiter-Glo cell viability reagent (Promega) after a certain period of time (SK-BR-3: 120 hours, BT-474: 120 hours, N-87: 72 hours, and HaCaT: 72 hours) post treatment with the compounds of Examples, and the luminescence intensity thereof was measured using a reader (SynergyNeo, Biotek). Each test was repeated three times.
The result values were calculated as a cell growth rate (%) compared to those of the control group. A graph was created using the GraphPad Prism version 5.0 program, and GI50 values were calculated.

[2] = tested on: BT-474 cells (HER2 overexpressing cell line); assay: BT-474 cell proliferation inhibitory activity (CellTiter-Glo, 120 hours); details: Homo sapiens
Method in brief: (§1)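 Cells seeded 24 h (HaCaT 3000/well, N-87 5000/well) or 48 h (SK-BR-3, BT-474 5000/well) before 11-point dosing: 0.2 nM–10 μM (SK-BR-3, BT-474), […]–5 μM (N-87), 0.8 nM–45 μM (HaCaT). CellTiter-Glo luminescence read; GI50 from growth relative to control, triplicate.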

[3] = tested on: HaCaT cells (EGFR expressing cell line); assay: HaCaT cell proliferation inhibitory activity (CellTiter-Glo, 72 hours); details: Homo sapiens
Method in brief: as §1

[4] = tested on: SK-BR-3 cells (HER2 overexpressing cell line); assay: SK-BR-3 cell proliferation inhibitory activity (CellTiter-Glo, 120 hours); details: Homo sapiens
Method in brief: as §1

Row | SMILES | GI50 [1] [nM] | GI50 [2] [nM] | GI50 [3] [nM] | GI50 [4] [nM]
1 | C=CC(=O)N1CCC(Oc2cc3c(Nc4cc(-c5ccco5)ccc4OC)ncnc3cc2OC)[C@H](C)C1 (stereo in doubt) [Example 169, 1-((3R,4S)-4-((4-((5-(furan-2-yl)-2-methoxyphenyl)amino)-7-methoxy-quinazolin-6-yl)oxy)-3-methylpiperidin-1-yl)prop-2-en-1-one] | ≤ 150 | ≤ 150 | ≤ 150 | –
2 | C=CC(=O)N1CCC(Oc2cc3c(Nc4cc(-c5ccc(F)c(NC(C)=O)c5F)ccc4OC)ncnc3cc2OC)CC1 [Example 1, N-(3′-((6-((1-acryloylpiperidin-4-yl)oxy)-7-methoxyquinazolin-4-yl)amino)-2,4-difluoro-4′-methoxy-[1,1′-biphenyl]-3-yl)acetamide] | ≤ 150 | ≤ 150 | > 1000 | –
3 | C=CC(=O)N1CCC(Oc2cc3c(Nc4cc(-c5ccc(F)c(NC(=O)C6CC6)c5F)ccc4OC)ncnc3cc2OC)CC1 [Example 2, N-(3'-((6-((1-acryloylpiperidin-4-yl)oxy)-7-methoxy-quinazolin-4-yl)amino)-2,4-difluoro-4′-methoxy-[1,11 biphenyl]-3-yl)cyclopropan-carboxamide] | ≤ 150 | ≤ 150 | > 1000 | –
4 | C=CC(=O)N1CC(Oc2cc3c(Nc4cc(-c5ccc(F)c(NC(=O)C6CC6)c5F)ccc4OC)ncnc3cc2OC)C1 [Example 3, N-(3′-((6-((1-acryloylazetidin-3-yl)oxy)-7-methoxy-quinazolin-4-yl)amino)-2,4-difluoro-4′-methoxy-[1,1′-biphenyl]-3-yl)cyclopropan-carboxamide] | ≤ 150 | ≤ 150 | 150 to 1000 | –
5 | C=CC(=O)N1CCC(Oc2cc3c(Nc4cc(-c5ccc(F)c(NC(=O)C6CC6)c5)ccc4OC)ncnc3cc2OC)CC1 [Example 4, N-(3′-((6-((1-acryloylpiperidin-4-yl)oxy)-7-methoxy-quinazolin-4-yl)amino)-4-fluoro-4′-methoxy-[1,1'-biphenyl]-3-yl)cyclopropan-carboxamide] | ≤ 150 | ≤ 150 | > 1000 | –
6 | C=CC(=O)N1CCC(Oc2cc3c(Nc4cc(-c5ccc(F)c(N6CC(F)(F)C6)c5)ccc4OC)ncnc3cc2OC)CC1 [Example 129, 1-(4-((4-((3′-(3,3-difluoroazetidin-1-yl)-4′-fluoro-4-methoxy-[1,1′-biphenyl]-3-yl)amino)-7-methoxy-quinazolin-6-yl)oxy)piperidin-1-yl)prop-2-en-1-one] | ≤ 150 | ≤ 150 | 150 to 1000 | –
7 | C=CC(=O)N1CCC(Oc2cc3c(Nc4cc(-c5ccc(F)c(N)c5)ccc4OC)ncnc3cc2OC)CC1 [Example 146, 1-(4-((4-((3′-amino-4′-fluoro-4-methoxy-[1,1′-biphenyl]-3-yl)amino)-7-methoxy-quinazolin-6-yl)oxy)piperidin-1-yl)prop-2-en-1-one] | ≤ 150 | – | > 1000 | ≤ 150
8 | C=CC(=O)N1CC[C@H](Oc2cc3c(Nc4cc(-c5ccco5)ccc4OC)ncnc3cc2OC)[C@H](F)C1 [Example 154, 1-((3R,4S)-3-fluoro-4-((4-((5-(furan-2-yl)-2-methoxy-phenyl)amino)-7-methoxy-quinazolin-6-yl)oxy)piperidin-1-yl)prop-2-en-1-one] | ≤ 150 | ≤ 150 | ≤ 150 | –
9 | C=CC(=O)N1CCC(Oc2cc3c(Nc4cc(-c5ccc(F)c(N(C)C)c5F)ccc4OC)ncnc3cc2OC)CC1 [Example 155, 1-(4-((4-((3′-(dimethylamino)-2′,4′-difluoro-4-methoxy-[1,1′-biphenyl]-3-yl)amino)-7-methoxy-quinazolin-6-yl)oxy)piperidin-1-yl)prop-2-en-1-one] | ≤ 150 | ≤ 150 | ≤ 150 | –
10 | C=CC(=O)N1CCC(Oc2cc3c(Nc4cc(-c5ccc(F)c(N)c5F)ccc4OC)ncnc3cc2OC)CC1 [Example 158, 1-(4-((4-((3′-amino-2′,4′-difluoro-4-methoxy-[1,1′-biphenyl]-3-yl)amino)-7-methoxy-quinazolin-6-yl)oxy)piperidin-1-yl)prop-2-en-1-one] | ≤ 150 | ≤ 150 | ≤ 150 | –
11 | C=CC(=O)N1CCC(Oc2cc3c(Nc4cc(-c5ccc(F)c(N6CCC6)c5)ccc4OC)ncnc3cc2OC)CC1 [Example 159, 1-(4-((4-((3′-(azetidin-1-yl)-4′-fluoro-4-methoxy-[1,1′-biphenyl]-3-yl)amino)-7-methoxy-quinazolin-6-yl)oxy)piperidin-1-yl)prop-2-en-1-one] | ≤ 150 | ≤ 150 | 150 to 1000 | –
12 | C=CC(=O)N1CCC(Oc2cc3c(Nc4cc(-c5ccc(F)c(O)c5)ccc4OC)ncnc3cc2OC)CC1 [Example 168, 1-(4-((4-((4′-fluoro-3′-hydroxy-4-methoxy-[1,1′-biphenyl]-3-yl)amino)-7-methoxy-quinazolin-6-yl)oxy)piperidin-1-yl)prop-2-en-1-one] | ≤ 150 | ≤ 150 | 150 to 1000 | –
13 | C=CC(=O)N1CCC(Oc2cc3c(Nc4cc(-c5cc(N)c(F)cc5F)ccc4OC)ncnc3cc2OC)CC1 [Example 170, 1-(4-((4-((5′-amino-2′,4′-difluoro-4-methoxy-[1,1′-biphenyl]-3-yl)amino)-7-methoxy-quinazolin-6-yl)oxy)piperidin-1-yl)prop-2-en-1-one] | ≤ 150 | ≤ 150 | ≤ 150 | –
14 | C=CC(=O)N1CC[C@@H](Oc2cc3c(Nc4cc(-c5ccco5)ccc4OC)ncnc3cc2OC)[C@H](F)C1 [Example 173, 1-((3R,4R)-3-fluoro-4-((4-((5-(furan-2-yl)-2-methoxyphenyl)amino)-7-methoxy-quinazolin-6-yl)oxy)piperidin-1-yl)prop-2-en-1-one] | ≤ 150 | ≤ 150 | ≤ 150 | –
15 | C=CC(=O)N1CCC(Oc2cc3c(Nc4cc(-c5scc6c5OCCO6)ccc4OC)ncnc3cc2OC)CC1 [Example 176, 1-(4-((4-((5-(2,3-dihydrothieno [3,4-b][1,4]dioxin-5-yl)-2-methoxyphenyl)amino)-7-methoxy-quinazolin-6-yl)oxy)piperidin-1-yl)prop-2-en-1-one] | ≤ 150 | ≤ 150 | ≤ 150 | –
16 | C=CC(=O)N1CC[C@@H](Oc2cc3c(Nc4cc(-c5ccc(F)cc5F)ccc4OC)ncnc3cc2OC)[C@@H](F)C1 [Example 189, 1-((3S,4R)-4-((4-((2′,4′-difluoro-4-methoxy-[1,1′-biphenyl]-3-yl)amino)-7-methoxy-quinazolin-6-yl)oxy)-3-fluoropiperidin-1-yl)prop-2-en-1-one] | ≤ 150 | ≤ 150 | ≤ 150 | –
17 | C=CC(=O)N1CCC(Oc2cc3c(Nc4cc(-c5ccc(F)cc5F)ccc4OC)ncnc3cc2O[C@@H]2CCOC2)CC1 [Example 281, (R)-1-(4-((4-((2′,4′-difluoro-4-methoxy-[1,1′-biphenyl]-3-yl)amino)-7-((tetrahydrofuran-3-yl)oxy)quinazolin-6-yl)oxy)piperidin-1-yl)prop-2-en-1-one] | ≤ 150 | – | ≤ 150 | ≤ 150
18 | C=CC(=O)N1CCC2(CC1)CN(c1cc3c(Nc4cc(-c5ccco5)ccc4OC)ncnc3cc1OC)C2 [Example 324, 1-(2-(4-((5-(furan-2-yl)-2-methoxyphenyl)amino)-7-methoxyquinazolin-6-yl)-2,7-diazaspiro[3.5]nonan-7-yl)prop-2-en-1-one] | – | > 1000 | 150 to 1000 | –
19 | C=CC(=O)N1CCC2(CC1)CN(c1cc3c(Nc4cc(-c5ccc(F)cc5F)ccc4OC)ncnc3cc1OC)C2 [Example 325, 1-(2-(4-((2′,4′-difluoro-4-methoxy-[1,1′-biphenyl]-3-yl)amino)-7-methoxyquinazolin-6-yl)-2,7-diazaspiro[3.5]nonan-7-yl)prop-2-en-1-one] | – | 150 to 1000 | 150 to 1000 | –
20 | C=CC(=O)N1CC2(C1)CN(c1cc3c(Nc4cc(-c5ccco5)ccc4OC)ncnc3cc1OC)C2 [Example 326, 1-(6-(4-((5-(furan-2-yl)-2-methoxyphenyl)amino)-7-methoxyquinazolin-6-yl)-2,6-diazaspiro[3.3]heptan-2-yl)prop-2-en-1-one] | – | > 1000 | 150 to 1000 | –
